Patent publication US5212320A, “Indole derivatives and their use for testosterone 5-alpha-reductase-mediated diseases” (Fujisawa Pharmaceutical Co., Ltd., priority 1990, dated 1993)
Where a name gives a salt, the structure may show the parent alone.

These compounds were tested against testosterone 5α-reductase (assay: Inhibitory activity on testosterone 5α-reductase in rats (prostatic testosterone 5α-reductase assay)). Settings: rat ventral prostate suspension; 2.2×10^-9 M 1,2,6,7-^3H-testosterone/testosterone; 50 μM NADPH; pH 6.5; 37° C., 30 minutes.
Assay type: biochemical, rat (Spraque-Dawley male
Source text: [2] INHIBITORY ACTIVITY ON TESTOSTERONE 5α-REDUCTASE IN RATS
1,2,6,7-^3 H-Testosterone (85-105 Ci/mmol): 1,2,6,7-^3 H-Testosterone (85-105 Ci/mmol) is a mixture of 1,2,6,7-^3 H-testosterone and testosterone which includes 85-105 Ci of 1,2,6,7-^3H-testosterone per mmol of testosterone and is purchased from New England Nuclear, Boston, Mass., U.S.A.
Aquazol-2 (Aquazol-2 Universal LSC Cocktail): trademark, purchased from New England Nuclear, Boston, Mass., U.S.A.
Mature Spraque-Dawley male rats (7-8 weeks old) were sacrificed by diethyl ether. The ventral prostates were dissected to be free of their capsules and their combined volume was measured by displacement in several milliliters of ice-cold medium A (0.32M sucrose, 0.1 mM dithiothreitol and 20 mM scdium phosphate, pH 6.5). Unless specified, all the following procedures were carried out at 0°-4° C. The prostates were drained, minced, and then homogenized in 3-4 tissue volumes of medium A with Pyrex-glass homogenizer. The homogenate was fractioned by differential centrifugations at 3,000 g for 15 minutes. The resulting pellets were resuspended in medium A. The suspension (20-30 mg protein/ml) was stored at -80° C.
The reaction solution contains 1 mM dithiothreitol, 40 mM sodium phosphate pH 6.5, 50 μM NADPH, 1,2,6,7-^3 H-testosterone/testosterone (2.2×10^-9 M) and the suspension prepared above (0.8 mg of protein) in a total volume of 565 μl. Test Compound was added in 10 μl of 10% ethanol whereas control tubes received the same volume of 10% ethanol. The reaction was started with the addition of the enzyme suspension. After incubation at 37° C. for 30 minutes, the reaction was extracted with 1 ml of ethyl acetate. Fifty μl of ethyl acetate phase was chromatographed on a Merck silica plastic sheet Kieselgel 60 F254, using ethyl acetate: cyclohexane (1:1) as the developing solvent system. The plastic sheet was air dried and cut the testosterone and the 5α-dihydrotestosterone areas. The radioactivity was counted in 5 ml of Aquazol-2 in Packard scintillation counter (PACKARD TRI - CARB 4530), and an inhibitory ratio was calculated.

Row | Compound | IC50 [nM]
1 | CC(C)Cc1ccc(C(Cc2cccc(C(=O)c3cn(CCCC(=O)O)c4ccccc34)c2)c2ccc(CC(C)C)cc2)cc1 [(5), 4-[3-[3-[2,2-Bis(4-isobutylphenyl)ethyl]benzoyl]indol-1-yl]butyric acid] | 7.4
2 | CCCCC(Oc1ccc(C(=O)c2cn(CCCC(=O)O)c3ccccc23)cc1)c1ccc(CC(C)C)cc1 (centres unmarked) [(8)] | 0.66
3 | CC(C)Cc1ccc(C(Nc2cccc(C(=O)c3cn(CCCC(=O)O)c4ccccc34)c2)c2ccc(CC(C)C)cc2)cc1 [(1), 4-[3-[3-[Bis(4-isobutylphen-yl)methylamino]benzoyl]indol-1-yl]butyric acid] | 5.5
4 | O=C(O)CCCn1cc(C(=O)c2cccc(CN3c4ccccc4CCc4ccccc43)c2)c2ccccc21 [(6), 4-[3-[3-(10,11-Dihydro-5H-dibenz[b,f]azepin-5-ylmethyl)benzoyl]indol-1-yl]butyric acid] | 0.93
5 | CC(C)Cc1ccc(C(C)Oc2ccc(C(=O)c3cn(CCCC(=O)O)c4ccccc34)cc2)cc1 (centres unmarked) [(4), 4-[3-[4-[1-(4-Isobutylphenyl)ethoxy]benzoyl]indol-1-yl]butyric acid] | 3.1
6 | CC(C)Cc1ccc(CNc2cc(NCc3ccc(CC(C)C)cc3)cc(C(=O)c3cn(CCCC(=O)O)c4ccccc34)c2)cc1 [(7), 4-[3-[3,5-Bis[(4-isobutylbenzyl)amino]benzoyl]indol-1-yl]butyric acid dihydrochloride] | 3.7
7 | CC(C)Cc1ccc(C(Oc2ccc(C(=O)c3cn(CCCC(=O)O)c4ccccc34)cc2)c2ccc(CC(C)C)cc2)cc1 [(3), 4-[3-[4-[Bis(4-isobutylphenyl)methoxy]benzoyl]indol-1-yl]butyric acid] | 3.5
8 | Cc1c(C(=O)c2cccc(NC(c3ccc(CC(C)C)cc3)c3ccc(CC(C)C)cc3)c2)c2ccccc2n1CCCC(=O)O [(2), 4-[3-[3-[Bis(4-isobutylphenyl)methylamino]benzoyl]-2-methylindol-1-yl]butyric acid] | 8.6
